The text below walks through data of patent US8729078B2, “Inhibitors of bruton's tyrosine kinase” (Hoffmann-La Roche Inc., priority 2011, dated 2014).

One may read the pIC50 as −log10 of the IC50, conventionally taken in molar units.

pIC50: −log10 of the molar value.

Experiment [1] concerns the target Btk (Homo sapiens (Human), UniProt Q06187). Nature of the experiment: Bruton's Tyrosine Kinase (Btk) inhibition assay (FRET BTK). Type of experiment: biochemical.
Experiment [2] concerns Ramos cells. Nature of the experiment: Inhibition of B-cell activation, B cell FLIPR assay in Ramos cells (anti-IgM stimulated calcium increase). Type of experiment: cell-based. To be noted: Homo sapiens, anti-IgM stimulated Ca2+ signaling. From the text: Inhibition of B-Cell Activation—B Cell FLIPR Assay in Ramos Cells
The B cell FLIPR assay is a cell based functional method of determining the effect of potential inhibitors of the intracellular calcium increase from stimulation by an anti-IgM antibody. Ramos cells (human Burkitt's lymphoma cell line. ATCC-No. CRL-1596) were cultivated in Growth Media (described below). One day prior to assay, Ramos cells were resuspended in fresh growth media (same as above) and set at a concentration of 0.5×10^6/mL in tissue culture flasks. On day of assay, cells are counted and set at a concentration of 1×10^6/mLl in growth media supplemented with 1 μM FLUO-3AM (TefLabs Cat-No. 0116, prepared in anhydrous DMSO and 10% Pluronic acid) in a tissue culture flask, and incubated at 37° C. (4% CO2) for one h. To remove extracellular dye, cells were collected by centrifugation (5 min, 1000 rpm), resuspended in FLIPR buffer (described below) at 1×10^6 cells/mL and then dispensed into 96-well poly-D-lysine coated black/clear plates (BD Cat-No. 356692) at 1×10^5 cells per well. Test compounds were added at various concentrations ranging from 100 μM to 0.03 μM (7 concentrations, details below), and allowed to incubate with cells for 30 min at RT. Ramos cell Ca^2+ signaling was stimulated by the addition of 10 μg/mL anti-IgM (Southern Biotech, Cat-No. 2020-01) and measured on a FLIPR (Molecular Devices, captures images of 96 well plates using a CCD camera with an argon laser at 480 nm excitation).
Growth Medium: RPMI 1640 medium with L-glutamine (Invitrogen, Cat-No. 61870-010), 10% Fetal Bovine Serum (FBS, Summit Biotechnology Cat-No. FP-100-05); 1 mM Sodium Pyruvate (Invitrogen Cat. No. 11360-070).
FLIPR buffer: HBSS (Invitrogen, Cat-No. 141175-079), 2 mM CaCl2 (Sigma Cat-No. C-4901), HEPES (Invitrogen, Cat-No. 15630-080), 2.5 mM Probenecid (Sigma, Cat-No. P-8761), 0.1% BSA (Sigma, Cat-No. A-7906), 11 mM Glucose (Sigma, Cat-No. G-7528)
Compound Dilution Details:
In order to achieve the highest final assay concentration of 100 μM, 24 μL of 10 mM compound stock solution (made in DMSO) is added directly to 576 μL of FLIPR buffer. The test compounds are diluted in FLIPR Buffer (using Biomek 2000 robotic pipettor) resulting in the following dilution scheme: vehicle, 1.00×10^−4 M, 1.00×10^−5, 3.16×10^−6, 1.00×10^−6, 3.16×10^−7, 1.00×10^−7, 3.16×10^−8.
Intracellular increases in calcium were reported using a max-min statistic (subtracting the resting baseline from the peak caused by addition of the stimulatory antibody using a Molecular Devices FLIPR control and statistic exporting software. The IC50 was determined using a non-linear curve fit (GraphPad Prism software).

For experiment [3], the system named is B cells in human whole blood (CD69 expression). Nature of the experiment: Inhibition of B cell activation in whole blood measured by CD69 expression. To be noted: anti-IgM stimulation, CD69-positive CD20-positive cells. Type of experiment: cell-based. Here is the method:
Inhibition of B Cell Activation in Whole Blood Measured by CD69 Expression
A procedure to test the ability of Btk inhibitors to suppress B cell receptor-mediated activation of B cells in human blood is as follows:
Human whole blood (HWB) is obtained from healthy volunteers, with the following restrictions: 24 hr drug-free, non-smokers. Blood is collected by venipuncture into Vacutainer tubes anticoagulated with sodium heparin. Test compounds are diluted to ten times the desired starting drug concentration in PBS (20×), followed by three-fold serial dilutions in 10% DMSO in PBS to produce a nine point dose-response curve. 5.5 μl of each compound dilution is added in duplicate to a 2 ml 96-well V bottom plate (Analytical Sales and Services, #59623-23); 5.5 μl of 10% DMSO in PBS is added to control and no-stimulus wells. HWB (100 μl) is added to each well, and after mixing the plates are incubated at 37 C, 5% CO2, 100% humidity for 30 minutes. Goat F(ab′)2 anti-human IgM (Southern Biotech, #2022-14) (10 μl of a 500 μg/ml solution, 50 μg/ml final concentration) is added to each well (except the no-stimulus wells) with mixing and the plates are incubated for an additional 20 hours.
At the end of the 20 hour incubation, samples are incubated with florescent-probe-labeled anti-bodies (15 μl PE Mouse anti-Human CD20, BD Pharmingen, #555623, and/or 20 ul APC Mouse anti-Human CD69, BD Pharmingen #555533) for 30 minutes, at 37 C, 5% CO2, 100% humidity. Included are induced control, unstained and single stains for compensation adjustments and initial voltage settings. Samples are then lysed with 1 ml of 1× Pharmingen Lyse Buffer (BD Pharmingen #555899), and plates are centrifuged at 1800 rpm for 5 minutes. Supernatants are removed via suction and the remaining pellets are lysed again with another 1 ml of 1× Pharmingen Lyse Buffer, and plates are spun down as before. Supernatants are aspirated and remaining pellets are washed in FACs buffer (PBS+1% FBS). After a final spin, the supernantants are removed and pellets are resuspended in 180 μl of FACs buffer. Samples are transferred to a 96 well plate suitable to be run on the HTS 96 well system on the BD LSR II flow cytometer.
Using appropriate excitation and emission wavelengths for the fluorophores used, data are acquired and percent positive cell values are obtained using Cell Quest Software. Results are initially analyzed by FACS analysis software (Flow Jo). […] The IC50 values are calculated using XLfit software version 3, equation 201.

Sequence of Btk (Q06187 whole entry): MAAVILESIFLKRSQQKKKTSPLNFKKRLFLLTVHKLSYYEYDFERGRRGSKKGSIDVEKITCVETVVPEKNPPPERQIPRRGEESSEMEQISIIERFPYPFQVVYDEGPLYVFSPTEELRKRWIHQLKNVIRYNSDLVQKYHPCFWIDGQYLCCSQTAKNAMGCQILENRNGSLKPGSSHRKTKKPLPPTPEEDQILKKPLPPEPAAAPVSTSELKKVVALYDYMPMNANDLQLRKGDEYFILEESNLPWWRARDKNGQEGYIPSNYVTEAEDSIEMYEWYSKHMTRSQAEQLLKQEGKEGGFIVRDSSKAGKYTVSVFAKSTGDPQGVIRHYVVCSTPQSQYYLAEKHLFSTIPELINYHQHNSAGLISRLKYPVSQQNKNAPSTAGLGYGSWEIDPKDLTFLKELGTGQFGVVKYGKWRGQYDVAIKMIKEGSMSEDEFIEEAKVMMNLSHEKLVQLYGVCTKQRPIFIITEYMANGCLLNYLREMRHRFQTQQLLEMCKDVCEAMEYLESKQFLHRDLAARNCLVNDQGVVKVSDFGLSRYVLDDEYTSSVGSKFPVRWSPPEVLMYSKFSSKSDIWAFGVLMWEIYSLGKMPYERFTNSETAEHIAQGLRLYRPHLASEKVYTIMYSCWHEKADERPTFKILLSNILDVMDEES

Consider `Cn1cc(-c2cccc(-n3ncc4cc(C(C)(C)C)ccc4c3=O)c2CO)nc1C(N)=O` [Compound I-1, 4-[3-(6-tert-Butyl-1-oxo-1H-phthalazin-2-yl)-2-hydroxymethyl-phenyl]-1-methyl-1H-imidazole-2-carboxylic acid amide], for which the pIC50 in experiment [1] was 7.30; in experiment [2] it was 4.95.
Regarding `CC(C)(C)c1ccc2c(=O)n(-c3cccc(-c4nc(C(N)=O)cs4)c3CO)ncc2c1` [Compound I-2, 2-[3-(6-tert-Butyl-1-oxo-1H-phthalazin-2-yl)-2-hydroxymethyl-phenyl]-thiazole-4-carboxylic acid amide], the pIC50 was 6.55 in experiment [1] and 5.80 in experiment [2].
Turning to `CC(C)(C)c1cc(F)c2c(=O)n(-c3cccc(-n4cc(C(N)=O)c5cccnc54)c3CO)ncc2c1` [Compound I-15, 1-[3-(6-tert-Butyl-8-fluoro-1-oxo-1H-phthalazin-2-yl)-2-hydroxymethyl-phenyl]-1H-pyrrolo[2,3-b]pyridine-3-carboxylic acid amide], the pIC50 is 8.49 in experiment [1], 7.40 in experiment [2] and 6.12 in experiment [3].
For `Cn1cc(-c2ccnc(-n3ncc4cc(C(C)(C)C)cc(F)c4c3=O)c2CO)cc1C(N)=O` [Compound I-16, 4-[2-(6-tert-Butyl-8-fluoro-1-oxo-1H-phthalazin-2-yl)-3-hydroxymethyl-pyridin-4-yl]-1-methyl-1H-pyrrole-2-carboxylic acid amide] the same measures were 7.70, 6.57 and 5.84.
